For assay [1], the system named is full thickness skin grafts in mice. The experiment in a line: Full thickness skin graft (FTSG) model. Format: in vivo, mouse. The settings on record: TSP1-null grafts, agent in drinking water post-operatively. On the procedure: Wild type, TSP1 null, CD47 null and CD36 null mice were matched for sex and age. Anesthesia was induced by and maintained with inhalation isoflurane. Body temperature was maintained at 37° C. with a heating pad during the procedure. The dorsal surface was clipped of hair and depilated with Nair®. The skin was then cleansed with surgical soap and alcohol and the animals draped. Using sterile technique, a 1×1 cm FTSG incorporating the panniculus carnosus, subcutaneous tissues and skin were raised. Graft dimensions were marked on the animal skin surface with the aid of a template to insure consistency in dimension. Grafts were in the midline of the animal and secured with four interrupted 5-0 nylon sutures. Sutures were so placed as to include the fascia of the dorsal musculature to provide increased immobilization of grafts to the underlying wound bed Animals were awakened and returned to individual cages and allowed ad libitum access to food and water. Trauma to FTSG was not encountered during the post-operative interval since grafts were located in the dorsal midline over the mid thoracic area and each animal was housed individually following surgery. On postoperative day three or seven, the animals were again anesthetized with inhalation isoflurane and skin graft survival evaluated.
The groups of animals utilized and the treatments received as indicated either at the time of skin grafting and/or during the post-operative interval are summarized in FIG. 21. Animals treated with ISDN (1 mg/ml) or L-NAME (0.5 mg/ml) had ad libitum access to drinking water containing the given concentrations of agents during the post-operative interval. Animals treated with a CD47 monoclonal antibody (Ab clone 301) or an isotype matched control antibody (Ig2α) underwent injection of 40 μg delivered as 10 μl of a 4 mg/ml stock in 100 μl of PBS with equal volumes injected between the wound bed and graft prior to suturing the graft in place. Animals treated with a CD47 morpholino oligonucleotide underwent injection of the FTSG and wound bed with 10 μmol/L in 250 μl of PBS with 125 μl volumes injected in the graft and wound bed, respectively prior to suturing the graft in place.
The necrotic areas of the FTSG were determined by color, refill, eschar, and the pin-prick test. The outlines of viable and nonviable areas were traced using transparent film, and the area of necrosis cut from the template and the area of skin graft necrosis versus total skin graft area determined by comparison of the original template weight to the weight of the cut template utilizing the method described by Ueda (Ueda et al., J Surg Res 80(2):200-204, 1998). Skin graft survival area was presented as the ration of graft survival on post-operative day three or seven divided by the original graft area multiplied by 100%. Additionally, digital images were then acquired using an Olympus C5500 digital camera at a fixed distance (20 cm perpendicular to the animal) under standard room lighting with autoflash and macro settings engaged and uploaded for image analysis of tissue survival with a standard software program (Image-Pro Plus, Media Cybernetics, Inc., Silver Spring, Md.). […]
Skin graft wound beds were assessed at indicated time points (72 hours or 7 days post-operatively) for visible alterations in vascularity under 5× magnification. […] Visible vessels without ramifications and branches were counted once. […]

In assay [2] the test system is random myocutaneous flaps in mice. The assay is described as follows: Random myocutaneous (McFarlane) flap model. The format is in vivo, mouse. The settings on record: aged TSP1-null animals, agent in drinking water. On the procedure: WT and TSP1 null mice were matched for sex and age. Under isoflurane inhalation anesthesia 1×2 cm random myocutaneous flaps were raised. Where indicated, animals received either L-NAME (0.5 mg/ml) or ISDN (1 mg/ml) ad libitum in drinking water during the post-operative period. On postoperative day 7, the animals were again anesthetized with inhalation isoflurane and flaps evaluated. Viable and necrotic areas of the flaps were determined by color, refill, eschar, and the pin-prick test. Outlines of viable and nonviable areas were traced using transparent film and the area of flap necrosis versus total flap area determined as described (Yu et al., Proc Natl Acad Sci USA 102:10999-11004, 2005).
Wild type, TSP1 null, CD36 null and CD47 null mice were matched for sex and age underwent random dorsal myocutaneous flaps as described (Isenberg et al., Blood 2006; Example 2) and tissue harvested on postoperative day 7.
The necrotic area of the flap was determined as described (Isenberg et al., Blood. Nov. 2, 2006) Animals were then euthanized and flaps excised, fixed in 10% paraformaldehyde and processed for histology.
Random myocutaneous flap wound beds and/or ischemic hindlimb vastus medialis muscle was assessed at indicated time points (72 hours or 7 days post-operatively) for visible alterations in vascularity under 5× magnification. An arbitrary though strictly applied definition of countable vessels was employed to highlight both individual vessels and vascular ramifications. In any given vascular plexus visible by 5× magnification a vessel was defined as that segment traversing two branches. Visible vessels without ramifications and branches were counted once. Treatment status and genetic background of tissue images was not known by the reviewer.
Animals underwent creation of a random myocutaneous (McFarlane) flap as previously described (Isenberg et al., Blood 109:1945-1952, 2007). Some animals received either ISDN (1 mg/mL) or L-NAME (0.5 mg/ml) ad libitum in the drinking water during the post-operative interval.
Flap soft tissue units and underling wound beds were injected with control vehicle (normal saline), a CD47 morpholino or a control morpholino (10 μM) in sterile saline. Flap survival was determined as described.

In another assay the test system is NO/cGMP signaling. The experiment in a line: cGMP signaling (NO-stimulated cGMP, immunoassay). Format: cell-based, human. The settings on record: concentration for 50% inhibition of effect. The procedure:
Vascular cells (endothelial) or HT-1080 cells (10^4 cells/well) grown overnight in 12-well culture in SM-GM containing 2% FCS or RPMI+10% FCS respectively and then weaned off serum over 48 h before treatment with NO donors and other agents in serum/additive free medium+0.1% BSA. Intracellular cGMP levels were determined using an enzyme immunoassay (Amersham, GE Health Care, UK). In other experiments fresh washed human platelets were incubated in Tyrode's buffer and the indicated treatment agents±NO and cGMP determined.

Assay [3] deals with VSMC and endothelial cells. The experiment in a line: NO-stimulated adhesion of VSMC and endothelial cells to type I collagen (Example 9). Format: cell-based. The following applies: 10 μM DEA/NO. On the procedure:
Vascular cells (VSMC or endothelial) were plated at 10,000 cells/well onto 96-well plates (Maxisorb, Nunc) precoated with type I collagen (3 μg/ml). […] Plates were then washed with PBS, fixed with glutaraldehyde, stained with crystal violet, and washed. Absorbed stain was solubilized with acetic acid from fixed cells and the resulting color signal determined on a MR580Microelisa Auto Reader, (Dynatech, Alexandria, Va.) at 450 nm wavelength.

Assay [4] concerns human platelets. The experiment in a line: Thrombin-induced human platelet aggregation. Format: cell-based. The following applies: high shear. The procedure:
Platelets were pelleted from platelet-rich plasma (PRP) by centrifugation for 10 minutes at 200 g. They were then washed with acid citrate dextrose (ACD) (85 mM citric acid, 65 mM sodium citrate, 100 mM glucose, pH 5.1) at a ratio of 1:7 at room temperature. After pelleting the platelets again and removing the supernatant, the platelets were resuspended in 5 mL of Tyrode's buffer (137 mM NaCl, 3 mM KCl, 12 mM NaHCO3, 0.3 mM NaHPO4, 2 mM CaCl2, 1 mM MgCl2, 5.5 mM glucose, 5 mM HEPES, 3.5 mg/mL BSA, pH 7.4). The final platelet number was adjusted to […] in 500 μl/cuvette of Tyrode's buffer.
Aggregation of human platelets under high shear conditions was assessed using a standard optical aggregometer (Lumi-Dual Aggregometer, Chrono-Log Corp., Havertown, Pa.) at 37° C. and 1200 rpm in a volume of 500 μl buffer with a final platelet concentration of 2×10^5 platelets/μl over a 5 minute interval. Pre-incubation with TSP1 and TSP1-based agents was for 15 minutes prior to addition of thrombin and/or the rapidly releasing nitric oxide donor DEA/NO. In some experiments platelets were pre-incubated with the Rap1 inhibitor GGTI-298 (10 μM) (Calbiochem, La Jolla, Calif.) for 30 minutes prior to initiating aggregation. In other high shear aggregation experiments murine platelets were prepared as above with the following modifications. Mouse blood was collected by retro-orbital bleeding of anesthetized mice using heparinized tubes. PRP was prepared and then diluted with 4 vol. of Tyrodes containing 5 mM EDTA to prevent activation. After collection by centrifugation, platelets were resuspended in 2× initial PRP volume and held at room temperature for less than 1 hour before use. Aggregation conditions consisted of 250 μL of washed platelets stirred at 1200 rpm in a Chronolog Optical aggregometer at 37° C. DEA/NO (10 μM) was added 30 seconds prior to activation and 8-BrcGMP added 15 min prior to activation with 0.2 U/ml human thrombin. Data was collected using Chronolog “Aggrolink” software. Platelet aggregation under static conditions was assessed using a spectrophotometer (Beckman DU 640, Beckman Coulter, Fullerton, Calif.) and determined as a change in absorbance at 400 nm with continuous observation over a five minute interval. The cuvette was inverted once every 60 seconds. Pre-incubation with TSP1 and TSP1-based agents was for 15 minutes prior to addition of thrombin and/or DEA/NO to minimize the formation of thrombin-serpinthrombospondin complexes (Chang & Detwiler, Arch Biochem Biophys. 299:100-104, 1992), which interfere with thrombin-platelet interactions.
Fresh human platelets were suspended in Tyrode's buffer and under low shear conditions thrombin-stimulated aggregation measured as described. Platelets were then treated with peptide C6d (1 μM)±NO (10 μM DEA/NO) and thrombin and aggregation measure.

Assay [5] concerns vascular cell outgrowth from muscle explants. The experiment in a line: Explant invasion assay in 3D collagen. Format: cell-based, mouse. The following applies: wild type and TSP1 null explants, NO 10 μM, peptides 10 μM, NoC1 0.1 μg/ml, day 7. On the procedure:
Muscle biopsies from the pectoralis major muscle of 8 to 12 week old wild type or transgenic mice were harvested and explanted into 100 μl of type I collagen gel in 96-well tissue culture plates as described (Isenberg et al., Matrix Biol 24:110-123, 2005). Following gelation, the embedded explants were overlayed with 75 μl of EGM+2% FCS in the presence or absence of a dose range of DETA/NO (0.01-1000 μM) and other indicated treatments and then incubated at 37° C. and 5% CO2 for 7 days, at which time maximum vascular cell migration through the matrix was measured.

The test system of a further assay is HUVEC. The assay is described as follows: NO-stimulated HUVEC adhesion on type I collagen. The following applies: DEA/NO 10 μM. Format: cell-based, human. On the procedure: Cell adhesion was carried out in 96-well culture plates. After pre-coating wells with type I collagen (3 μg/ml in DPBS) harvested cells were plated at a density of 1×10^4 cells/well in medium plus 0.1% BSA and treatment agents and incubated in 5% CO2 for 1 h. Wells were washed with PBS and cells fixed with 1% glutaraldehyde for 10 min., washed and stained with 1% crystal violet for 20 min. Excess stain was rinsed away, adherent cells treated with 10% acetic acid, and plates read at 570 nm.

Assay [6] concerns human platelets. The assay is described as follows: cGMP in human platelets. Format: cell-based. The following applies: washed human platelets in Tyrode's buffer. On the procedure:
Fresh human platelets at 2×10^5 platelets/μl in Tyrode's buffer or PRP were pre-incubated with the indicated agents for 15 minutes and then challenged with DEA/NO for the indicated time interval at room temperature and total cGMP determined via immunoassay (Amersham, GE Healthcare, Buckinghamshire, UK). Murine WT and TSP1-null platelets were treated with DEA/NO and cGMP flux measured.

The test system of assay [7] is murine ASMC (WT, CD36 null, CD47 null). The assay is described as follows: Intracellular cGMP in murine ASMC. The format is cell-based, mouse. The procedure: Murine ASMC were obtained from aortic segments harvested sterilely from C57B1/6 CD47 null or CD36 null mice as described (Ray et al., Methods Cell Sci 23:185-188, 2001) and cultured in SM-GM (Cambrex)+20% FCS. In the case of CD36 null cells, culture flasks were pre-coated with 1% gelatin prior to cell plating. Wild type C57B1/6 ASMC cultures were prepared as previously described (Isenberg et al., Matrix Biol 24:110-123, 2005). Cell culture purity was determined by immunohistochemistry staining for α-smooth muscle actin. Cells were used within passage 1 to 4 to minimize overgrowth of other cell types.
HUVEC (10^4 cells/well) grown overnight in 96-well culture plates containing full growth medium with 2% FCS and weaned in growth medium without additives and 1% FCS over 24 hrs before treatment with NO donors and other agents in SM-GM without additives+0.1% BSA. Intracellular cGMP levels were determined according to the manufacturer's instructions using an enzyme immunoassay kit (Amersham Biosciences). In other experiments ASMC from wild type and CD36 or CD47 null mice were plated onto 96-well culture plates and incubated overnight in full growth medium. They were then weaned off serum as described to SM-GM+0.1% BSA and treated with NO donor and other agents as indicated. Intracellular cyclic nucleotides were determined via immunoassay.

Ends that are not written are not given here. * marks the point of attachment. Biotin = O=C1N[C@H]2[C@H](CS[C@H]2CCCCC(=O)*)N1

With `O=[N+]([O-])O[C@H]1CO[C@H]2[C@@H]1OC[C@H]2O[N+](=O)[O-]` [ISDN, Isosorbide dinitrate, reference compound], the FTSG survival result in assay [1] is recorded as “not substantially altered”. Further, the flap survival entry in assay [2] was “did not dramatically alter flap survival”.

Turning to Biotin-IGWKGFTAYR [C6e], in the assay with NO/cGMP signaling, the “cGMP signaling IC50” value was “inactive”. Also, the “NO-stimulated adhesion to type I collagen” value in [3] is “not blocked”.

Consider FIRVVMYEGKK [7N3], for which, in the assay with human platelets [4], the “concentration sufficient to significantly inhibit the NO delay” value is reported as 10 nM. The “NO delay of thrombin-induced platelet aggregation” value in the assay with human platelets [4] (thrombin 0.2 U/ml, DEA/NO 10 μM) was “blocked”. Also, the “NO-stimulated vascular cell outgrowth” value in assay [5] is “inhibited vascular cell outgrowth”. In the assay on HUVEC, the “concentration of maximal inhibition of NO-stimulated endothelial cell adhesion” value was 10 µM. Moreover, the “NO-stimulated endothelial cell adhesion on type I collagen” value in the assay with HUVEC (1 h) was “inhibited NO-stimulated endothelial cell adhesion”. The “NO stimulated cGMP in platelets” value in the assay with human platelets [6] is recorded as “partially inhibited”. Moreover, the “NO-stimulated cGMP” value is “completely inhibited” in assay [7] (CD36 null MASMC) and “did not significantly inhibit” in assay [7] (CD47 null MASMC).

Take GAKDFTAYR [C6s]: in the assay with NO/cGMP signaling, the “cGMP signaling IC50” value is “inactive”. In [3], the “NO-stimulated adhesion to type I collagen” value is “not blocked”.

VTCGGGVQKRSRL [p245]: the “NO-stimulated vascular cell outgrowth” value in assay [5] is “inhibited vascular cell outgrowth”.

Values taken from US8865672B2, “Prevention of tissue ischemia and related methods” (The United States of America, as represented by the …, priority 2006, dated 2014).
